Assay results taken from patent publication US4166810A, “Derivatives of 4-desacetyl VLB C-3 carboxyhydrazide” (priority 1978, dated 1979).
Read-outs that look alike come from different tables or passages of the source.

What was measured:
B16 malignant melanoma = test: Survival prolongation in mice bearing B16 malignant melanoma; format: in vivo
Experimental: (§1) The compounds of this invention are active in inhibiting the growth of transplanted tumors in mice and/or in prolonging the life of tumor-innoculated mice. […] The size of the tumor was measured at 7 or 11 days where the drug inhibited tumor growth. Where life-prolongation was concerned, extra life span of treated animals over that of control animals was determined.
(§2) The following table--Table 1--gives the results of experiments in which mice bearing transplanted tumors were treated successfully with a compound of this invention. In the table, column 1 gives the name of the compound; column 2, the transplanted tumor; column 3, the dose level or dose level range and the number of days the dosage was administered; and column 4, the percent inhibition of tumor growth or percent prolongation of survival time, e.g., B16 (ROS is an abbreviation for Ridgeway osteogenic sarcoma; GLS for Gardner lymphosarcoma; P 1534 (J) for a leukemia and B16 for a malignant melanoma.

[1] = test system: Gardner lymphosarcoma (GLS); test: Transplanted tumor growth inhibition in mice, Gardner lymphosarcoma (GLS); format: in vivo; conditions: for inhibition in vivo at 0.125 mg/kg: 0.125 mg/kg × 10 days; for inhibition in vivo at 0.25 mg/kg: 0.25 mg/kg × 10 days
Experimental: as §1, §2

P 1534(J) leukemia = conditions: Belgian Pat. No. 813,168; cited from earlier work
Gardner lymphosarcoma = conditions: Belgian Pat. No. 813,168; cited from earlier work
[2] = test system: Ridgeway osteogenic sarcoma; conditions: Belgian Pat. No. 813,168; cited from earlier work
transplanted tumors = conditions: Belgian Pat. No. 813,168; cited from earlier work
[3] = test system: experimental malignancies; conditions: animals; cited from earlier work
[4] = humans; compared with vincristine; cited from earlier work
[5] = test system: vincristine-resistant leukemias; conditions: humans; cited from earlier work
leukemias = conditions: clinical trial in humans; cited from earlier work
[6] = Mus musculus, 168 h, measured at 7 days, read-out: Percent Inhibition (of tumor growth), 7 days
[7] = Mus musculus, 264 h, measured at 11 days, read-out: Percent Inhibition (of tumor growth), 11 days

In the case of CCC1(O)CC2CN(CCc3c([nH]c4ccccc34)C(C(=O)OC)(c3cc4c(cc3OC)N(C)C3C(O)(C(=O)NNC(C)=O)C(O)C5(CC)C=CCN6CCC43C65)C2)C1 (stereo not shown) [4-Desacetyl VLB C-3 N^2-acetylcarboxhydrazide], the “Percent Prolongation (of survival time)” value (B16 malignant melanoma; 0.15 mg/kg × 3 days) was 71%, the “Percent Prolongation (of survival time)” value (B16 malignant melanoma; 0.3 mg/kg × 3 days) was 100% and the “Percent Prolongation (of survival time)” value (B16 malignant melanoma; 0.6 mg/kg × 3 days) was 109%. The “Percent Prolongation (of survival time)” value (B16 malignant melanoma; 0.9 mg/kg × 3 days) was 84%, the “Percent Prolongation (of survival time)” value (B16 malignant melanoma; 1.2 mg/kg × 3 days) was 69% and the “Percent Inhibition (of tumor growth), 11 days” value ([1]; 0.5 mg/kg × 10 days, measured at 11 days) was “Toxic”. The inhibition in vivo at 0.125 mg/kg [1, 6] was 100%, the inhibition in vivo at 0.25 mg/kg [1, 6] was 100% and the inhibition in vivo at 0.5 mg/kg ([1]; Mus musculus, 168 h, 0.5 mg/kg × 10 days, measured at 7 days, read-out: Percent Inhibition (of tumor growth), 7 days) was 100%. For the same compound, the inhibition in vivo at 0.125 mg/kg [1, 7] was 93% and the inhibition in vivo at 0.25 mg/kg [1, 7] was 100%.

In the case of CCC1(O)CC2CN(CCc3c([nH]c4ccccc34)C(C(=O)OC)(c3cc4c(cc3OC)N(C)C3C(O)(C(=O)NN)C(O)C5(CC)C=CCN6CCC43C65)C2)C1 (stereo not shown) [4-Desacetyl VLB C-3 carboxhydrazide], the “activity against P 1534(J) leukemia” value (P 1534(J) leukemia) is listed as “active”, the “activity against Gardner lymphosarcoma” value (Gardner lymphosarcoma) is listed as “active” and the “activity against Ridgeway osteogenic sarcoma” value [2] is listed as “active”. The “anti-tumor activity against transplanted tumors in mice” value (transplanted tumors) was “active anti-tumor agent against transplanted tumors in mice”.

For CC[C@]12CN3CCc4c([nH]c5ccccc45)[C@@](C(=O)OC)(c4cc5c(cc4OC)N(C)[C@H]4[C@@](O)(C(=O)OC)[C@H](OC(C)=O)[C@]6(CC)C=CCN7CC[C@]54[C@@H]76)C[C@H](C3)[C@H]1O2 [leurosine], the “activity in the treatment of experimental malignancies” value (“activity in the treatment” below) [3] is listed as “found active in the treatment of experimental malignancies in animals”.

In the case of CCC1(O)CN2CCc3c([nH]c4ccccc34)C(C(=O)OC)(c3cc4c(cc3OC)N(C)C3C(O)(C(=O)OC)C(OC(C)=O)C5(CC)C=CCN6CCC43C65)CC(C2)C1O (stereo not shown) [vincadioline], the “activity in the treatment” value [3] is listed as “found active in the treatment of experimental malignancies in animals”.

In the case of CC[C@]1(O)C[C@H]2CN(CCc3c([nH]c4ccccc34)[C@@](C(=O)OC)(c3cc4c(cc3OC)N(C=O)[C@H]3[C@@](O)(C(=O)OC)[C@H](OC(C)=O)[C@]5(CC)C=CCN6CC[C@]43[C@@H]65)C2)C1 [vincristine, leurocristine], the “activity in the treatment” value [3] is listed as “found active in the treatment of experimental malignancies in animals”.

For CC[C@]1(O)C[C@@H]2CN(CCc3c([nH]c4ccccc34)[C@@](C(=O)OC)(c3cc4c(cc3OC)N(C)[C@H]3[C@@](O)(C(N)=O)[C@H](O)[C@]5(CC)C=CCN6CC[C@]43[C@@H]65)C2)C1 [vindesine, 4-desacetyl VLB C-3 carboxamide], the neurotoxicity [4] is listed as “less neurotoxicity than does vincristine”, the “effectiveness against vincristine-resistant leukemias” value [5] is listed as “apparently effective against vincristine-resistant leukemias” and the activity in leukemias (leukemias) is listed as “found active in certain leukemias”.

In the case of leurosidine, the “activity in the treatment” value [3] is given as “found active in the treatment of experimental malignancies in animals”.
